From patent US20240409662A1, “ANTIBODY MASKS AND USES THEREOF” (Vibrant Pharma Limited, priority 2021, published 2024)
Where two headings read alike, the source gives them in different places. No end group written: not given here.

B1: MMP9-digested L4-G3A (bispecific antibody, not shown: small tags and cut ends)
heavy: EVKLLESGGGLVQPKGSLKLSCAASGFTFNTYAMNWVRQAPGKGLEWVARIRSKYNNYATYYADSVKDRFTISRDDSQSILYLQMNNLKTEDTAMYYCVRHGNFGNSYVSWFAYWGQGTLVTVSS
light: QAVVTQESALTTSPGETVTLTCRSSTGAVTTSNYANWVQEKPDHLFTGLIGGTNKRAPGVPARFSGSLIGDKAALTITGAQTEDEAIYFCALWYSNLWVFGGGTKVEIK
chain: EVQLVESGGGFVQAGESLTLSCTSSTLTFTPYRMAWYRQAPGKQRDLVADISSGDGRTTNYADFAKGRFTISRDNIKNTVFLRMTNLKPEDTAVYYCNTFVSFVGIARSWGQGTQVTVSSESKYGPPCPPCPAPEAAGGPSVFLFPPKPKDTLMISRTPEVTCVVVDVSQEDPEVQFNWYVDGVEVHNAKTKPREEQFNSTYRVVSVLTVLHQDWLNGKEYKCKVSNKGLPSSIEKTISKAKGQPREPQVCTLPPSQEEMTKNQVSLSCAVKGFYPSDIAVEWESNGQPENNYKTTPPVLDSDGSFFLVSRLTVDKSRWQEGNVFSCSVMHEALHNRFTQKSLSLSL

How the values were obtained:
MMP9 = biological target: T1, MMP9 (Homo sapiens, UniProt P14780); test: Removal of masks by MMP9 digestion, SDS-PAGE; format: biochemical; conditions: 100 nM activated MMP9, 37° C., 3 hr
T1 construct: purchased Acrobiosystems
Description: MMP9 proenzyme (proMMP9), purchased from Acrobiosystems, was dissolved to 100 μg/mL in MMP9 digestion buffer (50 mM Tris, 10 mM CaCl2), 150 mM NaCl, pH 7.6). 4-aminophenylmercuric acetate (APMA) was added to a final concentration of 1 mM. The proMMP9-APMA mixture was incubated at 37° C. for 24 hr to activate proMMP9.
The selected M-TCEs, after adjusting to MMP9 digestion buffer, was mixed with activated MMP9 to a final concentration of 100 nM. The samples were further incubated at 37° C. for 3 hr to allow M-TCEs to be digested by MMP9.
The M-TCEs with 14 AA, 16 AA and 18 AA linker could be completely or nearly completely digested, as only the faster migrating bands could be seen. […] Too short linker would make the removal of the masks difficult, probably because the employed enzyme, MMP9 in this case, could not fully engage with its digestion site in the M-TCEs.

SP34 = test: Masking capability of potential masks of SP34 (ELISA, BLI); format: binding; conditions: mask and linker fused to SP34 VH and/or VL
Description: (§1) Binding of the 19 M-TCEs to both their antigens CEACAM5 and CD3δε was assessed with BLI using ForteBio Red96 as described above.

CD3δε = CD3δε (Homo sapiens, UniProt P07766); test: BLI binding of M-TCEs (captured on AHC sensors) to CD3δε; parameters: purchased ACRO (Beijing, China)
Description: Bio-Layer Interferometry (BLI) technique was employed for the measurement of protein-protein interactions in this study. A Octet Red96 system and Streptavidin (SA) or AHC biosensors (ForteBio, Fremont) were utilized.
Measurement of bindings between CD3ε1-27 mutants-SP34 fusion, or M-TCE, and […] was conducted as described above but with AHC sensors to capture M-TCE, and […] was used as the analyte.
as §1

HT29 cells = test: PBMC co-cultivation assay, M-TCE-induced killing of HT29 cells; format: cell-based, human; conditions: for EC50: HT29 + human PBMC, 72 hours, read-out: Efficacy (EC50)
Description: Five digested and undigested M-TCEs were tested for their tumor cell killing capability in the presence of human PBMC.
A total of 5×10^3 cells in RPMI1640 medium (supplemented with 10% FBS and 2 mM glutamine) of the target cell line (HT29) were seeded in 96-well plates (Day 0). A dilution series of respective antibodies was performed in assay media and added to target cells. On Day 0, a total of 5×10^4 PBMCs were added to each well, and the final reaction volume was adjusted to 200 μl. Percentage viability of target cell was measured by […]. LDH was measured after 72 hours using the Cell Counting Kit-8 (CK04, Dojindo, Japan) according to the manufacturer's recommendations. The results were analyzed as mean and standard deviation (SD) from triplicate wells and plotted as 4-parameter non-linear regression fittings using GraphPad Prism 9 software (GraphPad Software, San Diego, CA, USA).

CD3 on human PBMC [1] = biological target: T2, CD3 on human PBMC (human, UniProt P07766 23-207); test: cell-based or functional assay
CD3 on human PBMC [2] = biological target: T2, CD3 on human PBMC; test: cell-based or functional assay; remark: listed apart in the source

CD3δε, sequence (P07766 22-126 limits assumed): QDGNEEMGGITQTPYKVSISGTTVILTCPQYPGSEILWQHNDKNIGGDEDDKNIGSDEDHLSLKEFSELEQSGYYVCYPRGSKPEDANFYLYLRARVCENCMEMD
CD3δε, sequence (P04234 22-105 partner limits assumed): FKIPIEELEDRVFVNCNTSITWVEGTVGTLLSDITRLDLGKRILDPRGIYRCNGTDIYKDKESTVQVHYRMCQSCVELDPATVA
T1 sequence (P14780 107-707 limits assumed): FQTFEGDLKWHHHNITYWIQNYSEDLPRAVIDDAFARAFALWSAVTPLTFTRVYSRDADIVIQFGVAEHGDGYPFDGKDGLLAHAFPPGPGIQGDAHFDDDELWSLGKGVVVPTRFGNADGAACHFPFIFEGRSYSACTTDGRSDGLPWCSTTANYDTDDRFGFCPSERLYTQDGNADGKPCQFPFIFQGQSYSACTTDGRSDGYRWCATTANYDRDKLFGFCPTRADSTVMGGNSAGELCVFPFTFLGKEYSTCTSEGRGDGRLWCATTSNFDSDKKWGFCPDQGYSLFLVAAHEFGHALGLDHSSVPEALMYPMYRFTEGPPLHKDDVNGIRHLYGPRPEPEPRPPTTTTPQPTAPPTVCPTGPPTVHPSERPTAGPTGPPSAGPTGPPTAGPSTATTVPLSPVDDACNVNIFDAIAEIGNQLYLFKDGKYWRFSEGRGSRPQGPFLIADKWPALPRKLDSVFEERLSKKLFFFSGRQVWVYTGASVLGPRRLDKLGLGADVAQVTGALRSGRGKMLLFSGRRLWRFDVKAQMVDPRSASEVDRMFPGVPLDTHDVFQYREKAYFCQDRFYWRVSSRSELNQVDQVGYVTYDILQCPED
T2 sequence (P07766 23-207): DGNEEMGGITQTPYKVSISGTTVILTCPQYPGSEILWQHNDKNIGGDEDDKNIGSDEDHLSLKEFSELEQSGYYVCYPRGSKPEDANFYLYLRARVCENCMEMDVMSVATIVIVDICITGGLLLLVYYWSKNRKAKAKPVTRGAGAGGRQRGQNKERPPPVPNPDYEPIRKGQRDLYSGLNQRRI

Molecule	digestion by MMP9 (MMP9)	Masking Capability (SP34)	binding to CD3δε (CD3δε; non-digested (masked), compared with non-masked TCE)	EC50 (HT29 cells; MMP9-digested) [nM]	EC50 (HT29 cells; Non-digested) [nM]	efficacy lower before mask removal (HT29 cells; before vs after MMP9 digestion) [fold]	tumor cell killing efficacy (HT29 cells; digested vs undigested, in words)	Digested vs. masked (HT29 cells; ratio of EC50 non-digested to MMP9-digested) [×]	EC50 of MMP9-digested M-TCE relative to unmasked TCE (HT29 cells; vs SP34-CEA)	binding to CD3δε (CD3δε; after MMP9 digestion)	EC50 of M-TCE-induced killing of HT29 cells in the presence of human PBMC (CD3 on human PBMC [1]) [nM]	killing EC50 of MMP9-digested M-TCE against that of unmasked TCE SP34-CEA (CD3 on human PBMC [2]) [fold]
L2-G3R: M-TCE; QDRNEEGSPLGLGS-SP34VH, SEQ ID NO 43	could not be digested	Yes	lack of masking capability	–	–	–	–	–	–	–	–	–
L4-G3A: M-TCE; QDANEEGSGSPLGLGSGS-SP34VH, SEQ ID NO 39	partially digested	Yes	–	0.012	1.72	~140	could induce tumor cell killing both before and after MMP9 digestion	144	approximately 10 fold	largely restored the binding	–	–
B1	–	–	–	–	–	–	–	–	–	–	0.012	~10
